Converted amounts (≈) assume the structure as drawn.
Assay: physchem
Conditions: water
Description: Most native lipids have long fatty acyl side chains rendering them insoluble and difficult to work with in an aqueous environment.

CCCCCCCC(=O)OC[C@H](COP(=O)(O)O)OC(=O)CCCCCCC [C8-PA]
solubility: 50 mM (≈ 21.2 mg/mL)

Source: patent US8669065B1, “Methods for identifying molecules that modulate lipid binding sites of ion channels” (priority 2011, dated 2014)
